Data taken from patent US20240181081A1, “Compositions and Methods for Treatment of Myotonic Dystrophy Type 1 with CRISPR/SACAS9” (Vertex Pharmaceuticals Incorporated, priority 2021, published 2024).

Key:
[1] = system: CTG repeat expansion in the 3′ UTR of human DMPK gene; test: DOUBLE-cut screening: CTG repeat excision by loss-of-signal ddPCR in primary DM1 patient myoblasts; type: cell-based; conditions: sgRNA pair RNP, mean of upstream and downstream ddPCR assays; for % of CTG repeat excision efficiency by ddPCR (DNA-PKi): 3 μM Compound 6 for 48 hrs; for % of CTG repeat excision efficiency by ddPCR (Vehicle): DMSO 48 hrs
Description: (§1) RNPs were assembled with recombinant SaCas9 protein (Aldevron) and chemically modified sgRNAs (Synthego) at a ratio of 1:3 (protein:sgRNA). For SINGLE-cut screening, RNP complexes were assembled with 30 pmol of SaCas9 and 90 pmol of sgRNA in P5 Primary Cell Nucleofector Solution (Lonza). After incubation at room temperature for 20 minutes, 10 μL of RNP complex was mixed with two hundred thousand primary myoblasts resuspended in 10 μL of P5 Nucleofector Solution. For DOUBLE-cut screening, RNP complexes were first assembled for individual sgRNAs with 20 pmol of SaCas9 protein and 60 pmol of sgRNAs in 5 μL of P5 Nucleofector Solution. After incubation at room temperature for 20 minutes, the two RNP complexes (one for upstream sgRNA and one for downstream sgRNA) were mixed at 1:1 ratio and then further mixed with two hundred thousand primary myoblasts resuspended in 10 μL of P5 Nucleofector Solution.
(§2) The Nucleofector 96-well Shuttle System (Lonza) was used to deliver the SaCa9/sgRNA RNPs into primary DM1 patient myoblasts using the nucleofection program CM138. Following nucleofection, myoblasts from each well of nucleofection shuttle were split into six wells of the 96-well cell culture plate (Greiner, 655090) coated with matrigel. The first three wells were treated with DMSO for 48 hrs before changing to fresh myoblast growth medium, and the other three wells were treated with 3 μM of DNA-PKi Compound 6 for 48 hrs before changing to fresh myoblast growth medium. 72 hrs post nucleofection, two wells of DMSO-treated myoblasts and two wells of DNA-PKi-treated myoblasts from each nucleofection were harvested for genomic DNA extraction using the Kingfisher Flex purification system (Thermal Fisher), whereas one well of DMSO-treated myoblasts and one well of DNA-PKi-treated myoblasts were stained for RNA foci by FISH staining.
The primers and probes of ddPCR were designed using the online primer design software Primer3Plus (http://www.bioinformatics.nl/cgi-bin/primer3plus/primer3plus.cgi). The two Target primers/probe sets were used to detect CTG repeat excision, and the Reference primers/probe set was used to amplify a region located in Exon 1 of human DMPK gene and it served as a reference control for the Target sets. The 24 μL of ddPCR reaction consisted of 12 μL of Supermix for Probes (no dUTP) (Bio-Rad Laboratories), 1 μL of Reference primers mix (21.6 μM), 1 μL of Reference probe (6 μM), 1 μL of Target primers mix (21.6 μM), 1 μL of Target probe (6 μM), and 8 μL of sample genomic DNA. Droplets were generated using probe oil with the QX200 Droplet Generator (Bio-Rad Laboratories). Droplets were transferred to a 96-well PCR plate, sealed and cycled in a C1000 deep well Thermocycler (Bio-Rad Laboratories) under the following cycling protocol: 1 cycle at 95° C. for 10 min; 40 cycles of 94° C. for 30 sec, and 58° C. for 1 min; 1 cycle at 98° C. for 10 min (for enzyme inactivation). The cycled plate was then transferred and read in the FAM and HEX channels using the Bio-Rad QX200 Droplet Reader (Bio-Rad Laboratories). ddPCR analysis was performed with the Bio-Rad QuantaSoft Pro Software.
Next, DOUBLE-cut screening was performed to assess the efficiency of paired sgRNAs-induced CTG repeat excision and RNA foci reduction. 90 SaCas9 sgRNA pairs formed by one upstream sgRNA and one downstream sgRNA were assembled with recombinant SaCas9 protein into RNP complex and nucleofected into primary DM1 patient myoblasts. Nucleofected myoblasts were treated with either DMSO (vehicle) or 3 μM of Compound 6 (DNA-PKi) for 48 hrs. 72 hrs post nucleofection, myoblasts were subjected to either genomic DNA isolation or RNA foci staining.
One upstream and one downstream loss-of-signal droplet digital PCR (ddPCR) assays were used to determine the efficiency of CTG repeat excision. ddPCR signals would be abolished upon excision of the CTG repeat expansion in these loss-of-signal ddPCR assays. […]

[2] = system: CUG RNA foci in primary DM1 patient myoblasts; test: DOUBLE-cut screening: FISH staining of RNA foci in primary DM1 patient myoblasts; type: cell-based, human; conditions: sgRNA pair RNP, 72 hrs post nucleofection; for % of CUG foci free nuclei (DNA-PKi): 3 μM Compound 6 for 48 hrs; for % of CUG foci free nuclei (Vehicle): DMSO 48 hrs
Description: as §1, §2
Primary myoblasts were fixed for 15 min with 4% paraformaldehyde (PFA) and washed five times with 1×PBS for 10 min each at room temperature. Before staining, cells were permeabilized with 0.5% triton X-100 in 1×PBS for 5 min at room temperature, and then washed with 30% formamide and 2× saline-sodium citrate (SSC) mixture for 10 min at room temperature. Cells were then stained with 1 ng/μL of Cy3-PNA(CAG) 5 probe (PNA Bio, F5001) diluted in 30% formamide, 2×SSC, 2 μg/mL BSA, 66 μg/mL yeast tRNA, and 2 mM vanadyl complex for 15 min at 80° C. Following probe staining, cells were then washed in 30% formamide and 2×SSC mixture for 30 min at 42° C., then washed in 30% formamide and 2×SSC mixture for 30 min at 37° C., and then washed in 1×SSC solution for 10 min at room temperature, and finally washed in 1×PBS for 10 min at room temperature. Cells were next stained with anti-MBNL1 antibody (Santa Cruz, 3A4) diluted in 1% bovine serum albumin (BSA) for overnight at 4° C., and washed twice with 1×PBS for 10 min each at room temperature. Cells were then incubated with the secondary antibody goat […] Alexa 647 (Thermo Fisher, A32728) diluted in 1% BSA for 1 hr at room temperature, and washed twice with 1×PBS for 10 min each at room temperature. Next, cells were stained with Hoechst solution (Thermo Fisher, H3569) at 0.1 mg/ml for 5 min, and washed once with 1×PBS for 5 min. PBS was aspirated and fresh 100 μl of fresh PBS was added to each well. High-throughput acquisition of images was completed with the ImageXpress Micro Confocal High-Content Imaging System (Molecular Devices). RNA foci quantifications were accomplished with a customized analysis module of the MetaXpress program (Molecular Devices).
Next, DOUBLE-cut screening was performed to assess the efficiency of paired sgRNAs-induced CTG repeat excision and RNA foci reduction. 90 SaCas9 sgRNA pairs formed by one upstream sgRNA and one downstream sgRNA were assembled with recombinant SaCas9 protein into RNP complex and nucleofected into primary DM1 patient myoblasts. […]

Row | Substance | % of CTG repeat excision efficiency by ddPCR (DNA-PKi) [1] [%] | % of CTG repeat excision efficiency by ddPCR (Vehicle) [1] [%] | % of CUG foci free nuclei (DNA-PKi) [2] [%] | % of CUG foci free nuclei (Vehicle) [2] [%]
1 | SaU1 + SaD18: SaCas9 sgRNA pair, SEQ ID NOs: 1 and 26 (guide 1 GCCCCGGAGTCGAAGACAGTTC; guide 2 GGGCCTTTTATTCGCGAGGGTC; listed as DNA, chemistry not fully specified) | 47.64 | 19.40 | 69.94 | 29.85
2 | SaU1 + SaD19: SaCas9 sgRNA pair, SEQ ID NOs: 1 and 27 (guide 1 GCCCCGGAGTCGAAGACAGTTC; guide 2 AGGACCCCCACCCCCGACCCTC; listed as DNA, chemistry not fully specified) | 52.62 | 32.74 | 76.49 | 49.44
3 | SaU1 + SaD20: SaCas9 sgRNA pair, SEQ ID NOs: 1 and 28 (guide 1 GCCCCGGAGTCGAAGACAGTTC; guide 2 AGATGGAGGGCCTTTTATTCGC; listed as DNA, chemistry not fully specified) | 61.37 | 39.94 | 83.73 | 69.61
4 | SaU2 + SaD2: SaCas9 sgRNA pair, SEQ ID NOs: 2 and 10 (guide 1 ACTCAGTCTTCCAACGGGGCCC; guide 2 TCGGCCAGGCTGAGGCCCTGAC; listed as DNA, chemistry not fully specified) | 56.39 | 52.26 | 83.29 | 81.76
5 | SaU2 + SaD3: SaCas9 sgRNA pair, SEQ ID NOs: 2 and 11 (guide 1 ACTCAGTCTTCCAACGGGGCCC; guide 2 CAACGATAGGTGGGGGTGCGTG; listed as DNA, chemistry not fully specified) | 56.04 | 36.75 | 80.14 | 55.11
6 | SaU2 + SaD5: SaCas9 sgRNA pair, SEQ ID NOs: 2 and 13 (guide 1 ACTCAGTCTTCCAACGGGGCCC; guide 2 GGGTTTGGCAAAAGCAAATTTC; listed as DNA, chemistry not fully specified) | 59.19 | 38.64 | 83.71 | 75.82
7 | SaU2 + SaD6: SaCas9 sgRNA pair, SEQ ID NOs: 2 and 14 (guide 1 ACTCAGTCTTCCAACGGGGCCC; guide 2 CTTTTGCCAAACCCGCTTTTTC; listed as DNA, chemistry not fully specified) | 45.77 | 24.88 | 65.23 | 31.53
8 | SaU2 + SaD7: SaCas9 sgRNA pair, SEQ ID NOs: 2 and 15 (guide 1 ACTCAGTCTTCCAACGGGGCCC; guide 2 GGGGCGCGGGATCCCCGAAAAA; listed as DNA, chemistry not fully specified) | 52.12 | 29.62 | 76.74 | 49.05
9 | SaU2 + SaD10: SaCas9 sgRNA pair, SEQ ID NOs: 2 and 18 (guide 1 ACTCAGTCTTCCAACGGGGCCC; guide 2 TTGGGGGTCCTGTAGCCTGTCA; listed as DNA, chemistry not fully specified) | 66.52 | 38.02 | 82.97 | 75.56
10 | SaU2 + SaD11: SaCas9 sgRNA pair, SEQ ID NOs: 2 and 19 (guide 1 ACTCAGTCTTCCAACGGGGCCC; guide 2 CAAAACGTGGATTGGGGTTGTT; listed as DNA, chemistry not fully specified) | 52.97 | 26.90 | 73.23 | 48.38
11 | SaU2 + SaD12: SaCas9 sgRNA pair, SEQ ID NOs: 2 and 20 (guide 1 ACTCAGTCTTCCAACGGGGCCC; guide 2 TCAGTGCATCCAAAACGTGGAT; listed as DNA, chemistry not fully specified) | 58.68 | 36.47 | 83.77 | 76.56
12 | SaU2 + SaD13: SaCas9 sgRNA pair, SEQ ID NOs: 2 and 21 (guide 1 ACTCAGTCTTCCAACGGGGCCC; guide 2 CCCAACAACCCCAATCCACGTT; listed as DNA, chemistry not fully specified) | 51.47 | 30.92 | 75.83 | 39.86
13 | SaU2 + SaD15: SaCas9 sgRNA pair, SEQ ID NOs: 2 and 23 (guide 1 ACTCAGTCTTCCAACGGGGCCC; guide 2 GACAATAAATACCGAGGAATGT; listed as DNA, chemistry not fully specified) | 60.64 | 41.70 | 85.85 | 76.57
